# Test system: human bladder carcinoma (HT-1376) tumors
# Experiment: OCT decorrelation time in tumors grown in dorsal skin-fold window chamber model
# Format: in vivo
# Settings: mice, single tail vein injection 100 mg/m2, 0, 24 and 48 hours, FIG. 11; cell death confirmed by histological data
# Excerpt: An in-vivo tumor model used in the successful experiment consisted of human bladder carcinoma (HT-1376) tumors grown within a dorsal skin-fold window chamber model in a plurality of mice. […] A custom built 36 kHz swept source OCT system (similar to system 100) was used for in-vivo acquisition of data. For each imaging time point, two-dimensional frames of OCT data were acquired at 200 frames per second over approximately 8 seconds. Each frame contained 180 axial scans and covered a lateral distance of 3 mm. Data sets were acquired from imaging planes within the window chamber of each mouse. Method 200 was applied to each pixel location of an ROI within tumors at 0 hours, 24 hours and 48 hours to obtain an average decorrelation time at each of 0 hours, 24 hours and 48 hours.
smiles,measurement,value
N.N.[Cl][Pt][Cl] [cisplatin],average decorrelation time within tumor ROI,increase in average decorrelation time
